7 molecules from PubChem BioAssay (NCI) can be followed below.

Among the test systems are HCC-2998 colon; HCT-15 colon; SF-539 CNS; T-47D breast; UACC-257 melanoma; SF-268 CNS; HS 578T breast; MDA-MB-435; SNB-75 CNS; SK-MEL-28 melanoma.
Common to all, as to test: DTP human tumour cell line panel, 48 h

Where “and” joins values, the source holds several entries; their conditions need not be identical. Identical values can stand only once.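 Interpolation was linear, between the two tested concentrations surrounding the appropriate level; five concentrations were tested over 48 hours in 96-well plates. GI50 = concentration required for 50% inhibition of growth. TGI marks complete inhibition of growth.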

`OCC1OC(n2cnc3c2NC=NC[C@H]3O)C(Cl)C1O` (stereo not given in full): the TGI in the test with HCC-2998 colon, in the test with HCT-15 colon, in the test with SF-539 CNS, in the test on T-47D breast, with UACC-257 melanoma and in the test on SF-268 CNS was above 100 µM throughout. The concentration for total growth inhibition (TGI) with HS 578T breast, in the test on MDA-MB-435, with SNB-75 CNS and in the test with SK-MEL-28 melanoma was above 100 µM throughout.

Take `C=C1C(=O)O[C@H]2[C@H]1CC/C(COC(=O)NCCCCNC(=O)OC/C1=C/CC[C@@]3(C)O[C@H]3[C@H]3OC(=O)C(=C)[C@@H]3CC1)=C\CC[C@@]1(C)O[C@@H]21`: the GI50 (commonly the concentration that inhibits growth by half) in the test on HCC-2998 colon is 2.35 µM; in the test on HCT-15 colon, 5.61 µM; in the test on SF-539 CNS it was 1.55 µM; with T-47D breast, 1.51 µM; in the test on UACC-257 melanoma it was 1.68 µM; in the test with SF-268 CNS it was 3.18 µM. In addition, the GI50 with HS 578T breast is 2.54 µM; in the test on MDA-MB-435, 1.24 µM; in the test with SNB-75 CNS, 2.19 µM; with SK-MEL-28 melanoma it was 0.529 µM. The TGI (in general, the concentration giving total growth inhibition) amounted to 4.78 µM in the test with HCC-2998 colon; 20.8 µM with HCT-15 colon; 3.71 µM in the test with SF-539 CNS; 4.17 µM with T-47D breast; 4.99 µM in the test on UACC-257 melanoma; 12.6 µM in the test with SF-268 CNS. In addition, the concentration for total growth inhibition (TGI) amounted to 8.14 µM with HS 578T breast, 3.41 µM in the test on MDA-MB-435, 16.5 µM in the test on SNB-75 CNS and 2.3 µM with SK-MEL-28 melanoma.

In the case of `CC1=CC(=O)C=CC1=O`, the GI50 in the test on HCC-2998 colon is 13.2 µM and 18.6 µM; with HCT-15 colon it was 19.1 µM and 13.2 µM; in the test with SF-539 CNS it was 29.3 µM and 17 µM; in the test on T-47D breast, 11.9 µM and 2.54 µM; with UACC-257 melanoma, 35.9 µM and 17.4 µM; with SF-268 CNS, 16.5 µM. In addition, the GI50 with HS 578T breast is 14.4 µM and 24.9 µM; in the test on MDA-MB-435 it was 12.3 µM; with SNB-75 CNS it was 3.02 µM and 11.5 µM; with SK-MEL-28 melanoma, 16.9 µM and 17.9 µM. The TGI was 26.2 µM and 35.4 µM in the test on HCC-2998 colon; 38 µM and 29 µM in the test on HCT-15 colon; 31.4 µM with SF-539 CNS; 36.1 µM and 6.78 µM in the test on T-47D breast; 33.9 µM in the test on UACC-257 melanoma; 31.2 µM in the test with SF-268 CNS. For the same molecule, the concentration for total growth inhibition (TGI) in the test on HS 578T breast is 47.1 µM and 246 µM; in the test on MDA-MB-435, 25.4 µM; in the test on SNB-75 CNS it was 24.8 µM; in the test on SK-MEL-28 melanoma, 30.8 µM and 32.6 µM.

With `Cc1cc2ncnn2cc1Nc1ncc2c(n1)n(C1CCOCC1)c(=O)n2C`, the GI50 in the test with HCC-2998 colon is 6.56 µM; in the test on HCT-15 colon, 8.23 µM; in the test on SF-539 CNS it was 9.63 µM; in the test with T-47D breast, 1.41 µM; with UACC-257 melanoma, 7.52 µM; in the test with SF-268 CNS it was 6.18 µM. The GI50 in the test with HS 578T breast was 2.84 µM; in the test on MDA-MB-435 it was 8.01 µM; in the test on SNB-75 CNS, 1.12 µM; in the test on SK-MEL-28 melanoma, 5.71 µM. Moreover, the TGI was above 100 µM in the test with HCC-2998 colon; above 100 µM in the test with HCT-15 colon; 51.5 µM in the test with SF-539 CNS; 6.42 µM in the test on T-47D breast; 72.5 µM with UACC-257 melanoma; above 100 µM in the test with SF-268 CNS. Moreover, the TGI was 23.4 µM with HS 578T breast, above 100 µM in the test with MDA-MB-435, 6.96 µM in the test on SNB-75 CNS and 64.1 µM in the test with SK-MEL-28 melanoma.

With `CCCC(CCC)NCC(O)c1cc(-c2ccc(C(F)(F)F)cc2)nc(C(F)(F)F)c1` (stereo not given), the GI50 in the test on HCC-2998 colon is 1.68 µM; in the test with HCT-15 colon, 1.77 µM; in the test on SF-539 CNS, 1.67 µM; in the test with T-47D breast, 1.7 µM; in the test on UACC-257 melanoma it was 1.8 µM; in the test on SF-268 CNS, 1.86 µM. Also, the GI50 with HS 578T breast is 1.69 µM; in the test on MDA-MB-435, 1.96 µM; in the test with SNB-75 CNS, 1.72 µM; with SK-MEL-28 melanoma it was 1.92 µM. Further, the TGI came out at 3.1 µM in the test with HCC-2998 colon; 3.53 µM in the test on HCT-15 colon; 3.26 µM in the test with SF-539 CNS; 3.3 µM with T-47D breast; 3.45 µM in the test on UACC-257 melanoma; 3.38 µM in the test with SF-268 CNS. For the same molecule, the TGI worked out at 4.14 µM in the test on HS 578T breast, 3.74 µM in the test on MDA-MB-435, 3.3 µM in the test on SNB-75 CNS and 3.45 µM in the test with SK-MEL-28 melanoma.

Regarding `COc1ccc(-c2[nH]c3ccc(OC)cc3c2/C=C(\C#N)S(=O)(=O)c2ccccc2)cc1`, the GI50 in the test with HCC-2998 colon is 1.95 µM; in the test on HCT-15 colon it was 0.614 µM; with SF-539 CNS, 0.495 µM; in the test with T-47D breast it was 0.901 µM; in the test on UACC-257 melanoma it was 7.06 µM; in the test on SF-268 CNS, 1.56 µM. Also, the GI50 in the test with HS 578T breast is 0.531 µM; in the test with MDA-MB-435, 0.272 µM; in the test with SNB-75 CNS, 0.561 µM; in the test on SK-MEL-28 melanoma, 0.765 µM. Moreover, the total growth inhibition concentration (TGI) in the test on HCC-2998 colon is 5.87 µM; in the test on HCT-15 colon, above 100 µM; in the test on SF-539 CNS it was 2.51 µM; with T-47D breast, 12.1 µM; with UACC-257 melanoma, above 46.5 µM; in the test with SF-268 CNS, above 100 µM. The TGI was 7.25 µM with HS 578T breast, above 100 µM in the test on MDA-MB-435, 45.5 µM with SNB-75 CNS and above 67.8 µM in the test with SK-MEL-28 melanoma.

Regarding `COc1cc2ncnc(-n3ncc4cc(NC(=O)Nc5ccccc5)ccc43)c2cc1OC`, the GI50 was 1.88 µM with HCC-2998 colon; 0.579 µM with HCT-15 colon; 0.23 µM in the test on SF-539 CNS; 0.183 µM with T-47D breast; 2.32 µM with UACC-257 melanoma; 1.55 µM with SF-268 CNS. Further, the GI50 in the test with HS 578T breast was 0.299 µM; in the test on MDA-MB-435, 1.4 µM; with SNB-75 CNS, 0.191 µM; in the test with SK-MEL-28 melanoma, 1.38 µM. Moreover, the TGI stood at 11.2 µM in the test with HCC-2998 colon; 11.1 µM in the test on HCT-15 colon; 17.3 µM with SF-539 CNS; 1.37 µM in the test with T-47D breast; 5.13 µM with UACC-257 melanoma; 11.2 µM in the test on SF-268 CNS. Besides, the concentration for total growth inhibition (TGI) with HS 578T breast was 3.37 µM; in the test on MDA-MB-435, 33.9 µM; in the test on SNB-75 CNS, 5.69 µM; with SK-MEL-28 melanoma it was 4.33 µM.
